The values that follow come from patent US9796711B2, “Substituted pyrazolo[3,4-b]pyridin-6-carboxylic acids and method of use” (AbbVie S.àr.l., priority 2015, dated 2017).

Assay [1] deals with T1, ΔF508-CFTR (Homo sapiens, UniProt P13569, DEL508-508).
T1 construct: host or cells: CFBE41o-, doxycycline-inducible
The assay is described as follows: CFTR cell surface levels using HRP-tagged ΔF508-CFTR expressing CFBE cells, in the presence of a co-corrector. The assay is classed as cell-based. The settings on record: HRP-tagged ΔF508-CFTR expressing CFBE cells, in the presence of 3 μM co-corrector; for EC50: read-out: EC50. Put shortly: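 Cells were seeded with 0.5 μg/mL doxycycline and held 68 h at 37 °C. Test compounds plus 3 μM co-corrector (final 0.1% DMSO) were then added for 20 h at 33 °C. Washed cells received HRP substrate, and luminescence was normalized between DMSO and 3 μM co-corrector controls.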

Assay [2] has as its target T1, ΔF508-CFTR. Put plainly: CFTR cell surface levels using HRP-tagged ΔF508-CFTR expressing CFBE cells, intrinsic corrector capacity. Format: cell-based. The note with it: for EC50: read-out: EC50. The essentials:
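Here the cells express ΔF508-CFTR with horseradish peroxidase inserted in extracellular loop 4, so only rescued channel at the surface gives luminescent signal. Compounds act on their own, 20 h at the reduced temperature of 33 °C; values are percent activity relative to DMSO and a 3 μM corrector.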

Where [3] appears, read: HRP-tagged ΔF508-CFTR CFBE41o- cells, compounds alone (intrinsic corrector capacity), 20 hours at 33° C., positive control 3 μM corrector.
[4] abbreviates: HRP-tagged ΔF508-CFTR CFBE41o- cells, compounds alone (intrinsic corrector capacity), 20 hours at 33° C.
Where [5] appears, read: HRP-tagged ΔF508-CFTR expressing CFBE cells, intrinsic corrector capacity (no co-corrector), 33° C., 20 hours.
[6] abbreviates: HRP-tagged ΔF508-CFTR CFBE cells, compound alone (intrinsic corrector capacity), 20 hours at 33° C.

What is called EC50 is the concentration that produces a half-maximal response.

T1 sequence (P13569 with tags, fused parts or gaps DEL508-508): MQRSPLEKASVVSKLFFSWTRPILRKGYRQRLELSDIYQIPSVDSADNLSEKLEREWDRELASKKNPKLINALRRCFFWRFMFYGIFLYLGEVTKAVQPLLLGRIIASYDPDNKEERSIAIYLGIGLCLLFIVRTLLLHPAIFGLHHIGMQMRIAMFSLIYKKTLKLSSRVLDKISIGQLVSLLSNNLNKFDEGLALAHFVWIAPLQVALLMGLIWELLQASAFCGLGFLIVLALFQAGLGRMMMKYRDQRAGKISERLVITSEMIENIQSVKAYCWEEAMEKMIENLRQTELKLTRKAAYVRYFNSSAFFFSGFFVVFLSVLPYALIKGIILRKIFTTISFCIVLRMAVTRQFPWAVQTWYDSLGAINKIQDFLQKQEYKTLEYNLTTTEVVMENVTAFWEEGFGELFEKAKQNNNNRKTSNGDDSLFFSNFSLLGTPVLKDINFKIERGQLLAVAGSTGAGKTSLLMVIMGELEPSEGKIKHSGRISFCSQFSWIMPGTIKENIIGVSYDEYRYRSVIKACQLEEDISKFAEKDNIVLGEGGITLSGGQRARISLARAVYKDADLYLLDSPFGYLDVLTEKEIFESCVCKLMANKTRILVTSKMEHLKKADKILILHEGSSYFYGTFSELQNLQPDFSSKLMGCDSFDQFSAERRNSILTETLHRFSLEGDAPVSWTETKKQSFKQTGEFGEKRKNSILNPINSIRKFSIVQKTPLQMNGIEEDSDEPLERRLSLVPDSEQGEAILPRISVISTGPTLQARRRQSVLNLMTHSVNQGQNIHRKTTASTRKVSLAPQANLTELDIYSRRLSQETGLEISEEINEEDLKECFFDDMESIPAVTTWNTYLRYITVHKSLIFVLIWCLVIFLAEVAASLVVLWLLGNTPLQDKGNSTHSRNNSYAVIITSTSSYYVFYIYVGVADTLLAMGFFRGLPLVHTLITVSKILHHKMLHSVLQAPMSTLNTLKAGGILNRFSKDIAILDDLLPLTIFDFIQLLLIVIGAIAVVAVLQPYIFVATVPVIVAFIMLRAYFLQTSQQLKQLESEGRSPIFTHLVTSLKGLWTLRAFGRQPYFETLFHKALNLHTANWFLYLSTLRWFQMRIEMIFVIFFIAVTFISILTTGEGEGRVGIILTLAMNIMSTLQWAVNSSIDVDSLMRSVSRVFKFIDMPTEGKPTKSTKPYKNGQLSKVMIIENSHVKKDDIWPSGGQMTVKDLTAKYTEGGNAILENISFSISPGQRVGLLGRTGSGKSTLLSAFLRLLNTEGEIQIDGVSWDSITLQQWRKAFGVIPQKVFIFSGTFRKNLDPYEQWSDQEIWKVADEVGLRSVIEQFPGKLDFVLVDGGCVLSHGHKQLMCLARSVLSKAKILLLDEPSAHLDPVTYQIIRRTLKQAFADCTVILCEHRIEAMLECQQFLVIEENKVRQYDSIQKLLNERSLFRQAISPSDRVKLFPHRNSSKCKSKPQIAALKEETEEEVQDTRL

With `CC(C)c1nn(-c2cccc(N(C)C)c2)c2nc(C(=O)O)cc(-c3ccc(N(C)C4CCOCC4)cc3)c12` [compound 207, 1-[3-(dimethylamino)phenyl]-4-{4-[methyl(oxan-4-yl)amino]phenyl}-3-(propan-2-yl)-1H-pyrazolo[3,4-b]pyridine-6-carboxylic acid], the “% Activation” value was 674.35% in assay [1] and 384.15% in assay [2] (setting [3]). Also, the half-maximal effective concentration (EC50) in assay [1] came to 0.38 µM; in assay [2] (setting [4]), 0.581 µM.

For the molecule `O=C(O)c1cc(N2CC(F)(F)C[C@H]2CO)c2c(C3CCC3)nn(-c3ccccc3)c2n1` [compound 538, 3-cyclobutyl-4-[(2S)-4,4-difluoro-2-(hydroxymethyl)pyrrolidin-1-yl]-1-phenyl-1H-pyrazolo[3,4-b]pyridine-6-carboxylic acid], the “% Activation” value in assay [1] was 312.05%; in assay [2] (setting [5]), 124.6%. The figures for the EC50 in assay [1] and in assay [2] (setting [5]) were 1.54 µM and 2.43 µM, respectively.

On to `CN1CCC[C@@H](Oc2cc(C(=O)O)nc3c2c(C2CCC2)nn3-c2ccccc2)C1` [compound 496, 3-cyclobutyl-4-{[(3R)-1-methylpiperidin-3-yl]oxy}-1-phenyl-1H-pyrazolo[3,4-b]pyridine-6-carboxylic acid], for which the figures for the “% Activation” value in assay [1] and in assay [2] (setting [5]) were 145.5% and 32.84%, respectively. The EC50 in assay [1] was 2.13 µM; in assay [2] (setting [5]) it was 3.34 µM.

In the case of `CC(C)c1nn(-c2ccnc(Cl)c2)c2nc(C(=O)O)cc(-c3ccc(N4CCOCC4)cc3)c12` [compound 41, 1-(2-chloropyridin-4-yl)-4-[4-(morpholin-4-yl)phenyl]-3-(propan-2-yl)-1H-pyrazolo[3,4-b]pyridine-6-carboxylic acid], the “% Activation” value came out at 301.2% in assay [1] and 110.52% in assay [2] (setting [3]). Besides, the concentration giving a half-maximal response (EC50) was 0.527 µM in assay [1] and 0.957 µM in assay [2] (setting [4]).

With `Cc1nn(-c2ccccc2)c2nc(C(=O)O)cc(C3CCN(CC#N)CC3)c12` [compound 139, 4-[1-(cyanomethyl)piperidin-4-yl]-3-methyl-1-phenyl-1H-pyrazolo[3,4-b]pyridine-6-carboxylic acid], the results for the “% Activation” value in assay [1] and in assay [2] (setting [3]) were 104.1% and −0.041%, respectively. In addition, the EC50 in assay [1] and in assay [2] (setting [4]) was > 10 µM in each case.

As to `O=C(O)c1cc(N2CCC(C(F)CO)CC2)c2c(C3CCC3)nn(-c3ccccc3)c2n1` (centres unmarked) [compound 520, 3-cyclobutyl-4-[4-(1-fluoro-2-hydroxyethyl)piperidin-1-yl]-1-phenyl-1H-pyrazolo[3,4-b]pyridine-6-carboxylic acid], in assay [1], the “% Activation” value worked out at 450.25% and the EC50 came to 0.241 µM. Also, in assay [2] (setting [5]), the “% Activation” value is 213.9% and the EC50 worked out at 0.583 µM.

In the case of `O=C(O)c1cc(N2CCC(N3CCCCC3)CC2)c2c(C3CCC3)nn(-c3ccc(F)cc3)c2n1` [compound 693, 4-([1,4′-bipiperidin]-1′-yl)-3-cyclobutyl-1-(4-fluorophenyl)-1H-pyrazolo[3,4-b]pyridine-6-carboxylic acid], in assay [1], the “% Activation” value is listed as 392.45% and the EC50 came to 0.325 µM. In assay [2] (setting [5]), the “% Activation” value was determined as 185.9% and the EC50 was 1.27 µM.

`O=C(O)c1cc(N2CCC(CN3CC(F)C3)CC2)c2c(C3CCC3)nn(-c3ccccc3)c2n1` [compound 827, 3-cyclobutyl-4-{4-[(3-fluoroazetidin-1-yl)methyl]piperidin-1-yl}-1-phenyl-1H-pyrazolo[3,4-b]pyridine-6-carboxylic acid]: in assay [1], the “% Activation” value amounted to 453.25% and the EC50 was found to be 0.093 µM. In assay [2] (setting [5]), the “% Activation” value came to 265.4% and the EC50 came out at 0.257 µM.

In the case of `CC(C)c1nn(C2CCCCC2)c2nc(C(=O)O)cc(OCC3CCOCC3)c12` [compound 603, 1-cyclohexyl-4-[(oxan-4-yl)methoxy]-3-(propan-2-yl)-1H-pyrazolo[3,4-b]pyridine-6-carboxylic acid], in assay [1], the “% Activation” value is 273.3% and the EC50 was determined as 0.87 µM. Besides, in assay [2] (setting [5]), the “% Activation” value is recorded as 92.66% and the EC50 was 1.76 µM.

For `O=C(O)c1cc(OCC2CCC(F)(F)CC2)c2c(C3CCC3)nn(-c3ccccc3)c2n1` [compound 616, 3-cyclobutyl-4-[(4,4-difluorocyclohexyl)methoxy]-1-phenyl-1H-pyrazolo[3,4-b]pyridine-6-carboxylic acid], in assay [1], the “% Activation” value was determined as 389.95% and the EC50 was 0.0833 µM. Also, in assay [2] (setting [5]), the “% Activation” value was determined as 144.2% and the EC50 was 0.116 µM.

Regarding `Cc1nn(-c2cccc(C(F)(F)F)c2)c2nc(C(=O)O)cc(-c3ccc(N4CCOCC4)nc3)c12` [compound 102, 3-methyl-4-[6-(morpholin-4-yl)pyridin-3-yl]-1-[3-(trifluoromethyl)phenyl]-1H-pyrazolo[3,4-b]pyridine-6-carboxylic acid], the “% Activation” value in assay [1] is recorded as 384%; in assay [2] (setting [3]), 153%. For the same molecule, the EC50 is 0.949 µM in assay [1] and 1.04 µM in assay [2] (setting [4]).

With `CC(C)(C)c1nn(C2CCCCC2)c2nc(C(=O)O)cc(-c3cnc(N4CCOCC4)nc3)c12` [compound 149, 3-tert-butyl-1-cyclohexyl-4-[2-(morpholin-4-yl)pyrimidin-5-yl]-1H-pyrazolo[3,4-b]pyridine-6-carboxylic acid], the results for the “% Activation” value in assay [1] and in assay [2] (setting [3]) were 296% and 112.95%, respectively. Moreover, the EC50 in assay [1] is 0.449 µM; in assay [2] (setting [4]), 0.653 µM.

Take `CC1CN(C2CCN(c3cc(C(=O)O)nc4c3c(C3CCC3)nn4-c3ccccc3)CC2)CC(C)O1` (centres unmarked) [compound 688, 3-cyclobutyl-4-[4-(2,6-dimethylmorpholin-4-yl)piperidin-1-yl]-1-phenyl-1H-pyrazolo[3,4-b]pyridine-6-carboxylic acid]: in assay [1], the “% Activation” value worked out at 532.6% and the EC50 came out at 0.247 µM. In assay [2] (setting [5]), the “% Activation” value is listed as 322.5% and the EC50 worked out at 0.247 µM.

Turning to `CN(C)c1ccc(-c2cc(C(=O)O)nc3c2c(C(C)(C)C)nn3C2CCCCC2)cc1` [compound 131, 3-tert-butyl-1-cyclohexyl-4-[4-(dimethylamino)phenyl]-1H-pyrazolo[3,4-b]pyridine-6-carboxylic acid], the “% Activation” value in assay [1] was 388.7%; in assay [2] (setting [3]), 153.75%. The EC50 came to 0.62 µM in assay [1] and 0.899 µM in assay [2] (setting [4]).

With `CC(=O)N1CC[C@H]2CN(c3cc(C(=O)O)nc4c3c(C3CCC3)nn4-c3ccccc3)CC[C@H]21` (single isomer, unassigned) [compound 588], the “% Activation” value in assay [1] is reported as 469.3%; in assay [2] (setting [5]), 232.6%. Further, the results for the concentration for a half-maximal effect (EC50) in assay [1] and in assay [2] (setting [5]) were 2.42 µM and 3.33 µM, respectively.

Turning to `O=C(O)c1cc(N2CCC(N3CCOCC3)CC2)c2c(C3CCC3)nn(-c3ccc(OC(F)F)cc3)c2n1` [compound 914, 3-cyclobutyl-1-[4-(difluoromethoxy)phenyl]-4-[4-(morpholin-4-yl)piperidin-1-yl]-1H-pyrazolo[3,4-b]pyridine-6-carboxylic acid], in assay [1], the “% Activation” value turned out to be 429.25% and the EC50 was 0.173 µM. In assay [2] (setting [6]), the “% Activation” value stood at 228.2% and the EC50 turned out to be 0.546 µM.

Regarding `O=C(O)c1cc(N2CCC(N3CCOCC3)CC2)c2c(C3CCC3)nn(-c3cccc(F)c3)c2n1` [compound 825, 3-cyclobutyl-1-(3-fluorophenyl)-4-[4-(morpholin-4-yl)piperidin-1-yl]-1H-pyrazolo[3,4-b]pyridine-6-carboxylic acid], in assay [1], the “% Activation” value came out at 455.85% and the EC50 turned out to be 0.144 µM. In addition, in assay [2] (setting [5]), the “% Activation” value is listed as 289% and the EC50 worked out at 0.207 µM.

Regarding `Cc1cccc(-n2nc(C(C)C)c3c(N4CC5(CCC5)C4)cc(C(=O)O)nc32)c1` [compound 273, 4-(2-azaspiro[3.3]heptan-2-yl)-1-(3-methylphenyl)-3-(propan-2-yl)-1H-pyrazolo[3,4-b]pyridine-6-carboxylic acid], the “% Activation” value in assay [1] stood at 311.05%; in assay [2] (setting [3]) it was 100.16%. Further, the results for the half-maximal effective concentration (EC50) in assay [1] and in assay [2] (setting [4]) were 0.985 µM and 1.02 µM, respectively.

With `COCCOC1CCN(c2cc(C(=O)O)nc3c2c(C2CCC2)nn3-c2ccccc2)CC1` [compound 685, 3-cyclobutyl-4-[4-(2-methoxyethoxy)piperidin-1-yl]-1-phenyl-1H-pyrazolo[3,4-b]pyridine-6-carboxylic acid], in assay [1], the “% Activation” value is 510.3% and the EC50 is 0.245 µM. For the same molecule, in assay [2] (setting [5]), the “% Activation” value came out at 260.5% and the EC50 was determined as 0.164 µM.

With `Cc1nn(C2CCCCC2)c2nc(C(=O)O)cc(-c3cnc(N(C)C)nc3)c12` [compound 75, 1-cyclohexyl-4-[2-(dimethylamino)pyrimidin-5-yl]-3-methyl-1H-pyrazolo[3,4-b]pyridine-6-carboxylic acid], the “% Activation” value stood at 254% in assay [1] and 117.1% in assay [2] (setting [3]). Also, the EC50 in assay [1] came to 1.15 µM; in assay [2] (setting [4]) it was 3.13 µM.
